The values that follow come from patent US20240400584A1, “COMPOUNDS AND METHODS FOR MODULATING SPLICING” (REMIX THERAPEUTICS INC., priority 2021, published 2024).

The structures appear in SMILES notation.

Assay [1] concerns HTT. The assay can be described thus: Gene panel canonical junction qPCR assay, HTT CJ mRNA (Table 7). Particulars: Homo sapiens, read-out: HTT CJ mRNA decrease IC50. In kind it is cell-based, human. The method, boiled down: (§1)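 Canonical-junction transcript decrease reported as IC50 from a 4-parameter logistic fit of percentage response, derived from 2^(−ΔΔCt) versus housekeeper (GAPDH/GUSB/PPIA) and DMSO control using preset ΔCt windows. Readout by cDNA synthesis and qPCR with exon-junction-overlapping probesets in compound-treated K562 or A673 cells.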
On the technique in general: Quantitative PCR measures a nucleic acid by following its amplification.

The test system of assay [2] is MYB. The assay can be described thus: RT-qPCR splicing assay, MYB AJ/CJ mRNA. In kind it is cell-based. Particulars: Homo sapiens, A673 or K562 cells, 24 hours; for IC50: decrease in canonical junction mRNA; for AC50: increase in alternative junction mRNA. An outline of the steps: (§2)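 Splicing switch scored as change in CJ and AJ isoform levels, by RT-qPCR on lysates of A673 or K562 cells dosed 24 h (top concentration 10 uM, DMSO at most 0.25%). ΔΔCt relative to DMSO wells was converted to RQ and then to percentage response.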

The next assay has as its system Target C. The assay can be described thus: Gene panel canonical junction qPCR assay, Target C CJ mRNA (Table 7). In kind it is cell-based, human. Particulars: Homo sapiens, read-out: Target C CJ mRNA decrease IC50. The method, boiled down:
as §1

A further assay relates to SMN2. Kind of assay: Gene panel canonical junction qPCR assay, SMN2 CJ mRNA (Table 7). In kind it is cell-based. To be noted: Homo sapiens, read-out: SMN2 CJ mRNA decrease IC50. The method, boiled down: as §1
Assay [3] deals with MYB. Kind of assay: Gene panel canonical junction qPCR assay, MYB CJ mRNA (Table 7). The format is cell-based. Particulars: Homo sapiens, read-out: MYB CJ mRNA decrease IC50. An outline of the steps: as §1
Assay [4] has as its system HTT. The assay can be described thus: RT-qPCR splicing assay, HTT AJ/CJ mRNA. In kind it is cell-based, human. To be noted: Homo sapiens, 24 h, A673 or K562 cells; for IC50: decrease in canonical junction mRNA; for AC50: increase in alternative junction mRNA. An outline of the steps:
as §2

The IC50 is the midpoint of a concentration-inhibition curve. What is called AC50 is the concentration giving half of the maximal activity seen. Read a high AC50 as weaker potency. Consider `COc1cc(-c2ccc3c(c2)COc2nc(N4CC[C@H](N(C)C(C)(C)C)C4)ccc2-3)cnn1` [Compound 270, (3S)—N-tert-butyl-1-[8-(6-methoxypyridazin-4-yl)-6H-isochromeno[3,4-b]pyridin-3-yl]-N-methylpyrrolidin-3-amine], for which the IC50 was under 0.1 µM in the assay with HTT [1]; 0.1 to 1 µM with MYB [2]; 0.1 to 1 µM in the assay on Target C; under 0.1 µM in the assay on SMN2; 0.1 to 1 µM in the assay on MYB [3]; under 0.1 µM with HTT [4]. For the same molecule, the AC50 in the assay with MYB [2] was 0.1 to 1 µM; with HTT [4], under 0.1 µM.
Take `COc1cc(-c2ccc3c(c2)COc2nc(N4CC[C@@H](N(C)C(C)(C)C)C4)ccc2-3)cnn1` [Compound 271, (3R)—N-tert-butyl-1-[8-(6-methoxypyridazin-4-yl)-6H-isochromeno [3,4-b]377yrrolid-3-yl]-N-methylpyrrolidin-3-amine]: the IC50 in the assay on HTT [1] was under 0.1 µM; in the assay with MYB [2], 0.1 to 1 µM; with Target C, 0.1 to 1 µM; with SMN2 it was under 0.1 µM; in the assay with MYB [3], 0.1 to 1 µM; in the assay on HTT [4], under 0.1 µM. Besides, the AC50 in the assay with MYB [2] is 0.1 to 1 µM; with HTT [4] it was under 0.1 µM.
On to `CC(C)(C)NC1CCN(c2ccc3c(n2)OCc2cc(-c4ccnnc4)ccc2-3)C1` (stereo not drawn) [Compound 272, N-tert-butyl-1-[8-(pyridazin-4-yl)-6H-isochromeno[3,4-b]pyridin-3-yl]pyrrolidin-3-amine], for which the IC50 is 1 to 10 µM with HTT [1]; over 10 µM in the assay with MYB [2]; over 10 µM with Target C; 1 to 10 µM in the assay on SMN2; over 10 µM in the assay with MYB [3]; 1 to 10 µM with HTT [4]. The AC50 is over 10 µM with MYB [2] and 1 to 10 µM with HTT [4].
As for `COc1cc(-c2ccc3c(c2)COc2nc(N(C)C4CC(C)(C)NC(C)(C)C4)ncc2-3)cnn1` [Compound 276, N-[8-(6-methoxypyridazin-4-yl)-6H-isochromeno[3,4-d]pyrimidin-3-yl]-N,2,2,6,6-pentamethylpiperidin-4-amine], the IC50 with HTT [1] lay within 0.1 to 1 µM; in the assay with MYB [2], 1 to 10 µM; in the assay on Target C, 0.1 to 1 µM; in the assay on SMN2 it was 0.1 to 1 µM; with MYB [3], 1 to 10 µM; in the assay with HTT [4], 0.1 to 1 µM. For the same molecule, the AC50 is 1 to 10 µM with MYB [2] and 0.1 to 1 µM in the assay with HTT [4].
Regarding `CN(c1ncc2c(n1)OCc1cc(-c3cnnc(O)c3)ccc1-2)C1CC(C)(C)NC(C)(C)C1` [Compound 277, 5-{3-[methyl(2,2,6,6-tetramethylpiperidin-4-yl)amino]-6H-isochromeno[3,4-d]pyrimidin-8-yl}pyridazin-3-ol], the IC50 with HTT [1] was 0.1 to 1 µM; with MYB [2] it was 1 to 10 µM; with Target C it was 1 to 10 µM; in the assay with SMN2 it was 0.1 to 1 µM; with MYB [3] it was 1 to 10 µM; in the assay with HTT [4], 0.1 to 1 µM. The AC50 in the assay with MYB [2] lay in the range of 1 to 10 µM; with HTT [4] it was 0.1 to 1 µM.
For `COc1cc(-c2ccc3c(c2)COc2nc(N4CC[C@@H](NC(C)(C)C)C4)ncc2-3)cnn1` [Compound 278], the IC50 in the assay on HTT [1] is under 0.1 µM; in the assay on MYB [2], 0.1 to 1 µM; in the assay with Target C, 0.1 to 1 µM; with SMN2, under 0.1 µM; in the assay with MYB [3], 0.1 to 1 µM; in the assay on HTT [4], under 0.1 µM. Moreover, the AC50 in the assay on MYB [2] and in the assay with HTT [4] was 0.1 to 1 µM in each case.
For the molecule `COc1cc(-c2ccc3c(c2)COc2nc(N4CC[C@H](NC(C)(C)C)C4)ncc2-3)cnn1` [Compound 279], the IC50 is 0.1 to 1 µM in the assay with HTT [1]; 1 to 10 µM in the assay on MYB [2]; 1 to 10 µM with Target C; 0.1 to 1 µM with SMN2; 1 to 10 µM with MYB [3]; 0.1 to 1 µM in the assay on HTT [4]. The figures for the concentration at half-maximal activity (AC50) with MYB [2] and with HTT [4] were 1 to 10 µM and 0.1 to 1 µM, respectively.
Take `COc1cc(-c2ccc3c(c2)COc2nc(N4CCC(NC5CCC5)C4)ccc2-3)cnn1` (stereo not drawn) [Compound 280, N-cyclobutyl-1-[8-(6-methoxypyridazin-4-yl)-6H-isochromeno[3,4-b]pyridin-3-yl]pyrrolidin-3-amine]: the IC50 lay within 0.1 to 1 µM in the assay on HTT [1]; 1 to 10 µM with MYB [2]; 0.1 to 1 µM in the assay with Target C; 0.1 to 1 µM in the assay on SMN2; 1 to 10 µM in the assay with MYB [3]; 0.1 to 1 µM with HTT [4]. Further, the AC50 in the assay on MYB [2] and with HTT [4] was 0.1 to 1 µM throughout.
Turning to `CCC(C)(C)NC1CCN(c2ccc3c(n2)OCc2cc(-c4cnnc(OC)c4)ccc2-3)C1` (stereo not drawn) [Compound 281, 1-[8-(6-methoxypyridazin-4-yl)-6H-isochromeno[3,4-b]pyridin-3-yl]-N-(2-methylbutan-2-yl)pyrrolidin-3-amine], the IC50 was under 0.1 µM with HTT [1]; 0.1 to 1 µM in the assay with MYB [2]; 0.1 to 1 µM in the assay on Target C; under 0.1 µM with SMN2; 0.1 to 1 µM in the assay on MYB [3]; under 0.1 µM with HTT [4]. Further, the AC50 was 0.1 to 1 µM in the assay on MYB [2] and under 0.1 µM in the assay on HTT [4].
Consider `COc1cc(-c2ccc3c(c2)COc2nc(N4CCNCC4)ccc2-3)cnn1` [Compound 282, 3-methoxy-5-[3-(piperazin-1-yl)-6H-isochromeno[3,4-b]pyridin-8-yl] pyridazine], for which the IC50 in the assay on HTT [1], with MYB [2], in the assay on Target C, in the assay with SMN2, with MYB [3] and with HTT [4] was 0.1 to 1 µM throughout. The AC50 in the assay with MYB [2] and with HTT [4] was 0.1 to 1 µM in each case.
With `COc1cc(-c2ccc3c(c2)COc2nc(N4CCN5CCCC5C4)ccc2-3)cnn1` (stereo not drawn) [Compound 283], the IC50 is 0.1 to 1 µM in the assay on HTT [1]; 1 to 10 µM in the assay on MYB [2]; 1 to 10 µM with Target C; 0.1 to 1 µM with SMN2; 1 to 10 µM in the assay with MYB [3]; 0.1 to 1 µM in the assay with HTT [4]. For the same molecule, the AC50 in the assay on MYB [2] and in the assay on HTT [4] was 1 to 10 µM each time.
For the molecule `CCc1cc(-c2ccc3c(c2)COc2nc(N4CCC(NC(C)(C)C)C4)ccc2-3)cnn1` (stereo not drawn) [Compound 284, N-tert-butyl-1-[8-(6-ethylpyridazin-4-yl)-6H-isochromeno[3,4-b]pyridin-3-yl]pyrrolidin-3-amine], the IC50 with HTT [1] is over 10 µM; in the assay on MYB [2], over 10 µM; in the assay on Target C, over 10 µM; with SMN2, 1 to 10 µM; in the assay on MYB [3], over 10 µM; with HTT [4] it was over 10 µM. Moreover, the AC50 with MYB [2] and in the assay on HTT [4] was over 10 µM each time.
Consider `COc1cc(-c2ccc3c(c2)COc2nc(N4CCC(N)CC4)ccc2-3)cnn1` [Compound 288], for which the IC50 is 1 to 10 µM in the assay on HTT [1]; over 10 µM with MYB [2]; over 10 µM with Target C; 1 to 10 µM in the assay with SMN2; over 10 µM in the assay with MYB [3]; 1 to 10 µM in the assay on HTT [4]. Further, the half-maximal activity concentration (AC50) in the assay with MYB [2] was over 10 µM; in the assay with HTT [4] it was 1 to 10 µM.
For the molecule `COc1cc(-c2ccc3c(c2)COc2cc(N4CCC(NC(C)(C)C)C4)ncc2-3)cnn1` (stereo not drawn) [Compound 289, N-(tert-butyl)-1-(8-(6-methoxypyridazin-4-yl)-6H-isochromeno [4,3-c]pyridin-3-yl)pyrrolidin-3-amine], the half-maximal inhibitory concentration (IC50) with HTT [1] is 0.1 to 1 µM; in the assay on MYB [2] it was 0.1 to 1 µM; in the assay on Target C, 1 to 10 µM; in the assay on SMN2, under 0.1 µM; in the assay with MYB [3], 0.1 to 1 µM; in the assay with HTT [4], 0.1 to 1 µM. The AC50 with MYB [2] and in the assay on HTT [4] was 1 to 10 µM throughout.
Turning to `COc1cnnc(-c2ccc3c(c2)COc2nc(N4CCC(NC(C)(C)C)C4)ccc2-3)c1` (stereo not drawn) [Compound 292], the IC50 with HTT [1] was over 10 µM; in the assay on MYB [2] it was over 10 µM; in the assay on Target C, 1 to 10 µM; with SMN2, 1 to 10 µM; in the assay with MYB [3] it was over 10 µM; in the assay with HTT [4], over 10 µM. Also, the AC50 in the assay on MYB [2] and with HTT [4] was over 10 µM each time.
Take `CN(c1ncc2c(n1)OCc1cc(-c3cn[nH]c3)ccc1-2)[C@@H]1C[C@H]2CC[C@@H](C1)N2` [Compound 294]: the IC50 was under 0.1 µM in the assay with HTT [1]; 0.1 to 1 µM with MYB [2]; 0.1 to 1 µM in the assay on Target C; 0.1 to 1 µM in the assay on SMN2; 0.1 to 1 µM in the assay with MYB [3]; under 0.1 µM with HTT [4]. For the same molecule, the AC50 in the assay with MYB [2] lay in the range of 1 to 10 µM; in the assay with HTT [4] it was 0.1 to 1 µM.
For `COc1cc(-c2ccc3c(c2)COc2nc(N(C)[C@@H]4C[C@H]5CC[C@@H](C4)N5)ncc2-3)cnn1` [Compound 295], the IC50 with HTT [1] is under 0.1 µM; in the assay on MYB [2], 0.1 to 1 µM; in the assay with Target C, 0.1 to 1 µM; in the assay on SMN2 it was under 0.1 µM; in the assay on MYB [3] it was 0.1 to 1 µM; in the assay on HTT [4] it was under 0.1 µM. Besides, the figures for the AC50 in the assay on MYB [2] and in the assay with HTT [4] were 1 to 10 µM and under 0.1 µM, respectively.
On to `COc1cc(-c2ccc3c(c2)COc2nc(N4CCN[C@@H](C5CC5)C4)ccc2-3)cnn1` [Compound 296], for which the IC50 in the assay on HTT [1] was 0.1 to 1 µM; in the assay on MYB [2], 0.1 to 1 µM; with Target C, 0.1 to 1 µM; in the assay on SMN2, under 0.1 µM; in the assay with MYB [3], 0.1 to 1 µM; in the assay on HTT [4] it was 0.1 to 1 µM. In addition, the AC50 in the assay with MYB [2] and in the assay with HTT [4] was 0.1 to 1 µM throughout.
